A short description of series [1]: Stability studies on guanfacine prodrugs in buffers. In kind it is physicochemical.
The mark [2] stands for this setting: pH 1.2, 37° C., 0.1M HCl/NaCl buffer, 1 h.
[3] abbreviates: pH 1.2, 37° C., 0.1M HCl/NaCl buffer, time 0.
[4] abbreviates: pH 3.0, 20° C., 0.1M citrate buffer, 2 h.
The mark [5] stands for this setting: pH 3.0, 20° C., 0.1M citrate buffer, time 0.
Where [6] appears, read: pH 6.8, 37° C., 0.1M phosphate buffer, 2 h.
The mark [7] stands for this setting: pH 6.8, 37° C., 0.1M phosphate buffer, time 0.
Setting [8] is: pH 7.4, 37° C., 0.1M phosphate buffer, 2 h.
[9] abbreviates: pH 7.4, 37° C., 0.1M phosphate buffer, time 0.
Where [10] appears, read: DMSO, organic solvent or mixture, Solubility, in DMSO.
The mark [11] stands for this setting: water/CH3CN (1:1), aqueous with cosolvent or surfactant or cyclodextrin, Solubility, in water/CH3CN (1:1).
Where [12] appears, read: DMSO, organic solvent or mixture.

Several values for one entry are separate records, joined by “and”; a condition that tells them apart may be missing. Identical values can stand only once. Counter-ions that a name gives are not always drawn. Some results are limits rather than exact numbers.

For the compound `CC(C)COC(=O)NC(N)=NC(=O)Cc1c(Cl)cccc1Cl.Cl` [Compound 8, 1-{N′-[2-(2,6-Dichloro-phenyl)-acetyl]-guanidinocarbonyloxy}-2-methylpropane Hydrochloride], the Active drug in series [1] (setting [2]), in series [1] (setting [3]), in series [1] (setting [4]), in series [1] (setting [5]), in series [1] (setting [6]) and in series [1] (setting [7]) was 0.0 throughout. Also, the Active drug in series [1] (setting [8]) and in series [1] (setting [9]) was 0.0 in each case. The Pro-drug in series [1] (pH 1.2, 37° C., 0.1M HCl/NaCl buffer, 1 h, listed as Guanfacine Isobutyl Carbamate Hydrochloride, Hydrochloride) is 95.1 and 95.0; in series [1] (setting [3]), 100; in series [1] (pH 3.0, 20° C., 0.1M citrate buffer, 2 h, listed as Guanfacine Isobutyl Carbamate Hydrochloride, Hydrochloride), 95.2 and 95.3; in series [1] (setting [5]) it was 100; in series [1] (pH 6.8, 37° C., 0.1M phosphate buffer, 2 h, listed as Guanfacine Isobutyl Carbamate Hydrochloride, Hydrochloride), 98.2 and 97.9; in series [1] (setting [7]), 100. In addition, the Pro-drug in series [1] (pH 7.4, 37° C., 0.1M phosphate buffer, 2 h, listed as Guanfacine Isobutyl Carbamate Hydrochloride, Hydrochloride) is 95.3 and 96.7; in series [1] (setting [9]) it was 100. Besides, the solubility in “Solubility” (setting [10]) was more than 10000 µg/mL; in “Solubility” (water, Solubility, in water) it was less than 1000 µg/mL; in the series “Solubility” (setting [11]), more than 1000 µg/mL.
In the case of `CC(C)(C)COC(=O)NC(N)=NC(=O)Cc1c(Cl)cccc1Cl.Cl` [Compound 9, 1-{N′[2-(2,6-Dichloro-phenyl)-acetyl]guanidinocarbonyloxy}-2,2-dimethylpropane Hydrochloride], the Active drug in series [1] (setting [2]), in series [1] (setting [3]), in series [1] (setting [4]), in series [1] (setting [5]), in series [1] (setting [6]) and in series [1] (setting [7]) was 0.0 throughout. Moreover, the Active drug in series [1] (setting [8]) and in series [1] (setting [9]) was 0.0 in each case. The Pro-drug was 94.7 and 93.9 in series [1] (pH 1.2, 37° C., 0.1M HCl/NaCl buffer, 1 h, listed as Guanfacine Neopentyl Carbamate Hydrochloride, Hydrochloride); 100 in series [1] (setting [3]); 96.1 and 96.8 in series [1] (pH 3.0, 20° C., 0.1M citrate buffer, 2 h, listed as Guanfacine Neopentyl Carbamate Hydrochloride, Hydrochloride); 100 in series [1] (setting [5]); 98.3 and 97.9 in series [1] (pH 6.8, 37° C., 0.1M phosphate buffer, 2 h, listed as Guanfacine Neopentyl Carbamate Hydrochloride, Hydrochloride); 100 in series [1] (setting [7]). The Pro-drug in series [1] (pH 7.4, 37° C., 0.1M phosphate buffer, 2 h, listed as Guanfacine Neopentyl Carbamate Hydrochloride, Hydrochloride) is 99.2 and 98.5; in series [1] (setting [9]) it was 100. The solubility in “Solubility” (setting [10]) was more than 10000 µg/mL; in “Solubility” (water, Solubility, in water), less than 1000 µg/mL; in the series “Solubility” (setting [11]) it was more than 1000 µg/mL.
For `NC(=NC(=O)Cc1c(Cl)cccc1Cl)NC(=O)OCc1ccccc1` [Compound 10, {N′-[2-(2,6-Dichloro-phenyl)-acetyl]guanidino-carbonyloxy}toluene Hydrochloride], the solubility in “Solubility” (CH3CN, organic solvent or mixture, Solubility, in CH3CN) is more than 5000 µg/mL; in “Solubility” (setting [10]), more than 10000 µg/mL; in the series “Solubility” (water, Solubility, in water) it was less than 1000 µg/mL.
`[2H]C([2H])([2H])C([2H])([2H])OC(=O)NC(=N)NC(=O)Cc1c(Cl)cccc1Cl` [Compound 13, {N′-[2-(2,6-Dichloro-phenyl)-acetyl]-guanidinocarbonyloxy} d5-ethane]: the Active drug in series [1] (setting [2]), in series [1] (setting [3]), in series [1] (setting [4]), in series [1] (setting [5]), in series [1] (setting [6]) and in series [1] (setting [7]) was 0.0 in each case. Also, the Active drug in series [1] (setting [8]) and in series [1] (setting [9]) was 0.0 throughout. Moreover, the Pro-drug is 97.6 and 96.6 in series [1] (pH 1.2, 37° C., 0.1M HCl/NaCl buffer, 1 h, listed as Guanfacine D5-Ethyl Carbamate); 100 in series [1] (setting [3]); 98.7 and 98.3 in series [1] (pH 3.0, 20° C., 0.1M citrate buffer, 2 h, listed as Guanfacine D5-Ethyl Carbamate); 100 in series [1] (setting [5]); 99.4 and 99.2 in series [1] (pH 6.8, 37° C., 0.1M phosphate buffer, 2 h, listed as Guanfacine D5-Ethyl Carbamate); 100 in series [1] (setting [7]). Moreover, the Pro-drug in series [1] (pH 7.4, 37° C., 0.1M phosphate buffer, 2 h, listed as Guanfacine D5-Ethyl Carbamate) was 99.4 and 99.2; in series [1] (setting [9]), 100. Moreover, the solubility in the series “Solubility” (setting [10]) is more than 10000 µg/mL; in “Solubility” (water, Solubility, in water) it was less than 1000 µg/mL.
Regarding `CO[C@H]1O[C@H](COC(=O)NC(=N)NC(=O)Cc2c(Cl)cccc2Cl)[C@@H](O)[C@H](O)[C@H]1O.Cl` [Compound 16, 2-(2,6-dichlorophenyl)-N-(N-((((2R,3S,4S,5R,6S)-3,4,5-trihydroxy-6-methoxytetrahydro-2H-pyran-2-yl)methoxy)carbonyl)carbamimidoyl)acetamide hydrochloride], in “Solubility”, the “Solubility (in words)” value was “water, DMSO”.
Take `N=C(NC(=O)Cc1c(Cl)cccc1Cl)NC(=O)Oc1ccc(CC(=O)O)cc1` [Compound 25, Hydrochloride]: the solubility was more than 23000 µg/mL in “Solubility” (setting [12]) and less than 2300 µg/mL in “Solubility” (water).
Take `Cl.N=C(NC(=O)Cc1c(Cl)cccc1Cl)NC(=O)Oc1cccc(C(=O)O)c1` [Compound 28, 3-[({[2-(2,6-dichlorophenyl)acetamido]methanimidoyl}carbamoyl)oxy]benzoic acid hydrochloride]: the “Solubility (in words)” value in the series “Solubility” is “insoluble in water”. The solubility in the series “Solubility” (setting [12]) is more than 20000 µg/mL.
For `CC(C)[C@@H]1CC[C@@H](C)C[C@H]1OC(=O)NC(N)=NC(=O)Cc1c(Cl)cccc1Cl.Cl` [Compound 29, 1-(R)-{N′-[2-(2,6-Dichloro-phenyl)-acetyl]-guanidinocarbonyloxy}-2-(S)-isopropyl-5-(R)-methyl-cyclohexane Hydrochloride], the Active drug in series [1] (setting [2]), in series [1] (setting [3]), in series [1] (setting [4]), in series [1] (setting [5]), in series [1] (setting [6]) and in series [1] (setting [7]) was 0.0 in each case. Further, the Active drug in series [1] (setting [8]) and in series [1] (setting [9]) was 0.0 each time. Also, the Pro-drug was 94.6 and 95.5 in series [1] (pH 1.2, 37° C., 0.1M HCl/NaCl buffer, 1 h, listed as Guanfacine-(−)-Menthyl Carbamate Hydrochloride, Hydrochloride); 100 in series [1] (setting [3]); 98.3 and 99.6 in series [1] (pH 3.0, 20° C., 0.1M citrate buffer, 2 h, listed as Guanfacine-(−)-Menthyl Carbamate Hydrochloride, Hydrochloride); 100 in series [1] (setting [5]); 97.9 and 97.3 in series [1] (pH 6.8, 37° C., 0.1M phosphate buffer, 2 h, listed as Guanfacine-(−)-Menthyl Carbamate Hydrochloride, Hydrochloride); 100 in series [1] (setting [7]). Moreover, the Pro-drug in series [1] (pH 7.4, 37° C., 0.1M phosphate buffer, 2 h, listed as Guanfacine-(−)-Menthyl Carbamate Hydrochloride, Hydrochloride) was 94.7 and 96.9; in series [1] (setting [9]), 100. Further, the solubility was more than 1430 µg/mL in “Solubility” (2.5 mL CH3CN/1 mL H2O, aqueous with cosolvent or surfactant or cyclodextrin, Solubility, in 2.5 mL CH3CN/1 mL H2O); more than 10000 µg/mL in “Solubility” (setting [10]); less than 1000 µg/mL in the series “Solubility” (water, Solubility, in water).
`Cl.NC(=NC(=O)Cc1c(Cl)cccc1Cl)NC(=O)OCC1CC1` [Compound 31, {N′-[2-(2,6-Dichloro-phenyl)acetyl]-guanidino-carbonyloxy}methylcyclopropane Hydrochloride]: the Active drug in series [1] (setting [2]) is given as 0.6; in series [1] (setting [3]), 0.0; in series [1] (setting [4]) it was 0.0; in series [1] (setting [5]), 0.0; in series [1] (setting [6]), 0.0; in series [1] (setting [7]), 0.0. For the same compound, the Active drug in series [1] (setting [8]) and in series [1] (setting [9]) was 0.0 each time. The Pro-drug was 92.9 and 92.7 in series [1] (pH 1.2, 37° C., 0.1M HCl/NaCl buffer, 1 h, listed as Guanfacine Cyclopropylmethyl Carbamate Hydrochloride, Hydrochloride); 100 in series [1] (setting [3]); 98.3 and 98.5 in series [1] (pH 3.0, 20° C., 0.1M citrate buffer, 2 h, listed as Guanfacine Cyclopropylmethyl Carbamate Hydrochloride, Hydrochloride); 100 in series [1] (setting [5]); 97.6 and 97.4 in series [1] (pH 6.8, 37° C., 0.1M phosphate buffer, 2 h, listed as Guanfacine Cyclopropylmethyl Carbamate Hydrochloride, Hydrochloride); 100 in series [1] (setting [7]). The Pro-drug in series [1] (pH 7.4, 37° C., 0.1M phosphate buffer, 2 h, listed as Guanfacine Cyclopropylmethyl Carbamate Hydrochloride, Hydrochloride) is 99.6 and 99.5; in series [1] (setting [9]) it was 100. Moreover, the solubility is more than 10000 µg/mL in “Solubility” (setting [10]); less than 1000 µg/mL in the series “Solubility” (water, Solubility, in water); more than 5000 µg/mL in the series “Solubility” (setting [11]).

For orientation: solubility means how much of the substance goes into solution per volume.

The values above are taken from patent US20120065152A1 (SHIRE LLC, priority 2010, published 2012).
